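Where inhibition never reached the appropriate level, the endpoint shown equals the highest concentration tested. Otherwise, values were interpolated linearly from a five-concentration, 48-hour dose response in 96-well plates. TGI: total growth inhibition.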
Columns and labels:
Test in all cases: growth of human tumour cells (NCI), 48 h
HCC-2998 colon = system: HCC-2998 colon
UACC-62 melanoma = system: UACC-62 melanoma
K-562 leukemia = system: K-562 leukemia
U251 CNS = system: U251 CNS
SW-620 colon = system: SW-620 colon
SK-MEL-2 melanoma = system: SK-MEL-2 melanoma
SK-OV-3 ovarian = system: SK-OV-3 ovarian
HCT-116 colon = system: HCT-116 colon
SK-MEL-28 melanoma = system: SK-MEL-28 melanoma
MDA-N = system: MDA-N
MALME-3M melanoma = system: MALME-3M melanoma
RPMI-8226 leukemia = system: RPMI-8226 leukemia
OVCAR-8 ovarian = system: OVCAR-8 ovarian
HL-60(TB) leukemia = system: HL-60(TB) leukemia
COLO 205 colon = system: COLO 205 colon
HS 578T breast = system: HS 578T breast
HOP-92 NSCLC = system: HOP-92 NSCLC
UACC-257 melanoma = system: UACC-257 melanoma

Row | SMILES | TGI (HCC-2998 colon) | TGI (UACC-62 melanoma) | TGI (K-562 leukemia) | TGI (U251 CNS) | TGI (SW-620 colon) | TGI (SK-MEL-2 melanoma) | TGI (SK-OV-3 ovarian) | TGI (HCT-116 colon) | TGI (SK-MEL-28 melanoma) | TGI (MDA-N) | TGI (MALME-3M melanoma) | TGI (RPMI-8226 leukemia) | TGI (OVCAR-8 ovarian) | TGI (HL-60(TB) leukemia) | TGI (COLO 205 colon) | TGI (HS 578T breast) | TGI (HOP-92 NSCLC) | TGI (UACC-257 melanoma)
1 | CC1(C)N=C(/C=N/O)C(C)(C)N1O | > 100 µM | > 100 µM | > 100 µM | > 100 µM | > 100 µM | > 100 µM | > 100 µM | > 100 µM | > 100 µM | > 100 µM | > 100 µM | > 100 µM | > 100 µM | > 100 µM | > 100 µM | > 100 µM | > 100 µM | –
2 | CSc1ccc(/C=C2\N=C(c3ccccc3)N(c3nc4c(Cl)cc(Cl)cc4s3)C2=O)cc1 | 94 µM | 73.1 µM | > 100 µM | 37.3 µM | > 100 µM | 41.4 µM | 84.9 µM | 41.5 µM | > 100 µM | 36.1 µM | – | > 100 µM | > 100 µM | 69.7 µM | > 100 µM | 64.6 µM | > 100 µM | > 100 µM
3 | CC1=C(C(=O)NCC(C)O)CC(C(=O)NCC(C)O)=C(C)N1 (configuration not stated) | > 100 µM | > 100 µM | > 100 µM | > 100 µM | > 100 µM | > 100 µM | > 100 µM | > 100 µM | > 100 µM | > 100 µM | – | > 100 µM | > 100 µM | > 100 µM | > 100 µM | > 100 µM | > 100 µM | > 100 µM
4 | Cc1ccc(S(=O)(=O)/N=C(\[O-])C2=C(c3ccccc3)NN(C)c3nc4cccc[n+]4nc32)cc1 | > 100 µM | > 100 µM | > 100 µM | > 100 µM | > 100 µM | > 100 µM | – | > 100 µM | > 100 µM | > 100 µM | > 100 µM | > 100 µM | > 100 µM | > 100 µM | 53.3 µM | > 100 µM | 81.9 µM | > 100 µM
5 | CCn1c(-c2ccc(C)cc2)cs/c1=N\C(P(=O)(O)O)P(=O)(O)O | > 100 µM | > 100 µM | > 100 µM | > 100 µM | > 100 µM | – | > 100 µM | > 100 µM | > 100 µM | > 100 µM | > 100 µM | > 100 µM | > 100 µM | > 100 µM | > 100 µM | > 100 µM | > 100 µM | > 100 µM
6 | O=S(=O)(O)c1ccc2c(N=Nc3ccccc3Cl)c(O)ccc2c1 | – | > 100 µM | > 100 µM | > 100 µM | > 100 µM | > 100 µM | > 100 µM | > 100 µM | > 100 µM | > 100 µM | > 100 µM | > 100 µM | > 100 µM | – | > 100 µM | > 100 µM | > 100 µM | > 100 µM
7 | O=C1CCCCC[C@]12SC[C@H]1CON=C12 | > 100 µM | 71.7 µM | > 100 µM | 42.2 µM | > 100 µM | – | > 100 µM | > 100 µM | > 100 µM | 32.5 µM | > 100 µM | > 100 µM | > 100 µM | > 100 µM | > 100 µM | > 100 µM | 50.2 µM | > 100 µM
8 | OCCN=C1c2ccccc2C2C(c3ccccc31)C1c3ccccc3C(=NCCO)c3ccccc3C21 (configuration not stated) | 40.5 µM | 37.5 µM | 40.2 µM | 41.3 µM | > 100 µM | 30.5 µM | 61.5 µM | 30.3 µM | 36.4 µM | 31.3 µM | 75.7 µM | 37.2 µM | > 100 µM | 47.2 µM | 44.4 µM | 45.7 µM | – | 69.2 µM
9 | CCCC#CC(O)(C(=O)OC1CCN(C)CC1)C1CCCCC1 (configuration not stated) | > 100 µM | > 100 µM | > 100 µM | > 100 µM | > 100 µM | > 100 µM | > 100 µM | > 100 µM | > 100 µM | > 100 µM | > 100 µM | > 100 µM | > 100 µM | – | > 100 µM | > 100 µM | > 100 µM | > 100 µM
10 | CC(NC(=O)C(N)CC(=O)O)NC(=O)N1CCOCC1 (configuration not stated) | – | > 100 µM | > 100 µM | > 100 µM | > 100 µM | > 100 µM | > 100 µM | > 100 µM | > 100 µM | > 100 µM | > 100 µM | > 100 µM | > 100 µM | – | > 100 µM | > 100 µM | – | > 100 µM
11 | CCOC(=O)/C=C(\N=P(c1ccccc1)(c1ccccc1)c1ccccc1)C(F)(F)C(F)(F)C(F)(F)C(F)(F)C(F)(F)F | > 100 µM | > 100 µM | > 100 µM | > 100 µM | > 100 µM | > 100 µM | > 100 µM | > 100 µM | > 100 µM | > 100 µM | > 100 µM | > 100 µM | – | > 100 µM | > 100 µM | > 100 µM | > 100 µM | > 100 µM
12 | CC(=O)N1N=C(N)CC1=O | > 100 µM | > 100 µM | > 100 µM | > 100 µM | > 100 µM | > 100 µM | > 100 µM | > 100 µM | > 100 µM | > 100 µM | > 100 µM | – | > 100 µM | > 100 µM | > 100 µM | > 100 µM | > 100 µM | > 100 µM
13 | O=CC1OC(=O)c2cc(O)c(O)c(O)c2-c2c(cc(O)c(O)c2O)C(=O)OC1C(O)C(O)CO (configuration not stated) | > 100 µM | – | 44.2 µM | 32.3 µM | 32.9 µM | > 100 µM | – | 81.1 µM | > 100 µM | 36.2 µM | > 100 µM | 72.4 µM | 45.8 µM | > 100 µM | > 100 µM | > 100 µM | > 100 µM | > 100 µM

Source: PubChem BioAssay (NCI)
